Assay results: patent US9290451B2 (Hoffmann-La Roche Inc., priority 2011, dated 2016)

What was measured:
human CB2 receptors = human CB2 receptors (Homo sapiens (Human), UniProt P34972); assay: cAMP assay, CHO cells expressing human CB2 receptors; format: cell-based; details: CHO cells expressing human CB2, cAMP; read-out: human CB2 EC50
Experimental: (§1) CHO cells expressing human CB1 or CB2 receptors are seeded 17-24 hours prior to the experiment 50.000 cells per well in a black 96 well plate with flat clear bottom (Corning Costar #3904) in DMEM (Invitrogen No. 31331), 1×HT supplement, with 10% fetal calf serum and incubated at 5% CO2 and 37° C. in a humidified incubator. The growth medium was exchanged with Krebs Ringer Bicarbonate buffer with 1 mM IBMX and incubated at 30° C. for 30 min Compounds were added to a final assay volume of 100 μl and incubated for 30 min at 30° C. Using the cAMP-Nano-TRF detection kit the assay (Roche Diagnostics) was stopped by the addition of 50 μl lysis reagent (Tris, NaCl, 1.5% Triton X100, 2.5% NP40, 10% NaN3) and 50 μl detection solutions (20 μM mAb Alexa700-cAMP 1:1, and 48 μM Ruthenium-2-AHA-cAMP) and shaken for 2 h at room temperature. The time-resolved energy transfer is measured by a TRF reader (Evotec Technologies GmbH), equipped with a ND:YAG laser as excitation source. The plate is measured twice with the excitation at 355 nm and at the emission with a delay of 100 ns and a gate of 100 ns, total exposure time 10 s at 730 (bandwidth 30 nm) or 645 nm (bandwidth 75 nm), respectively. The FRET signal is calculated as follows: FRET=T730-Alexa730-P(T645-B645) with P═Ru730-B730/Ru645-B645, where T730 is the test well measured at […], T645 is the test well measured at 645 nm, B730 and B645 are the buffer controls at 730 nm and 645 nm, respectively. cAMP content is determined from the function of a standard curve spanning from 10 μM to 0.13 nM cAMP.
(§2) EC50 values were determined using Activity Base analysis (ID Business Solution, Limited). The EC50 values for a wide range of cannabinoid agonists generated from this assay for reference compounds were in agreement with the values published in the scientific literature.

human CB1 receptors = human CB1 receptors (Homo sapiens (Human), UniProt P21554); assay: cAMP assay, CHO cells expressing human CB1 receptors; format: cell-based; details: CHO cells expressing human CB1, cAMP; read-out: human CB1 EC50
Chain of human CB1 receptors (P21554 whole entry): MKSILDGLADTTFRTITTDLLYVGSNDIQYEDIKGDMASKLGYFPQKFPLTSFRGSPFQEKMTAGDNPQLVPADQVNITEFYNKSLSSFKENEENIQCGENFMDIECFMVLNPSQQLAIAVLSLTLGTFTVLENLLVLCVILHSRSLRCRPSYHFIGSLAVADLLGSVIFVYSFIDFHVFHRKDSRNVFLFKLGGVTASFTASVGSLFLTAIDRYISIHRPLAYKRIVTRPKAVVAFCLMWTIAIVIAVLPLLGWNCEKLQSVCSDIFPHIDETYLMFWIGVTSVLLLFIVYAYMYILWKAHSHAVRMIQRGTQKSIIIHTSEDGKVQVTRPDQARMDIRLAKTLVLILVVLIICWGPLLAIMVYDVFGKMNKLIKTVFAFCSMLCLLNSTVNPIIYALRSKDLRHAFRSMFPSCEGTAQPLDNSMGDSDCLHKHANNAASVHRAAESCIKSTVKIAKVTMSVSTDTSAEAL
Experimental: as §1, §2

Chain of human CB2 receptors (P34972 whole entry): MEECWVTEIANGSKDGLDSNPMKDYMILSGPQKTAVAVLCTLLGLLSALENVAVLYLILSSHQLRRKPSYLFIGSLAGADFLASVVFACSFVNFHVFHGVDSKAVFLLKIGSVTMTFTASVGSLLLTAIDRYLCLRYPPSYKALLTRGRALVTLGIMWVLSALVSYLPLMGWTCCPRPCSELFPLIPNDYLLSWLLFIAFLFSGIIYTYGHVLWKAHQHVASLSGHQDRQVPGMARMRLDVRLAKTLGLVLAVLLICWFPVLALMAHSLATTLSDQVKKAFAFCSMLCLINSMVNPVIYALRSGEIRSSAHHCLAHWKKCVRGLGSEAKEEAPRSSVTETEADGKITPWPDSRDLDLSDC

Row | Structure (SMILES) | EC50 (human CB2 receptors) [nM] | EC50 (human CB1 receptors) [nM]
1 | CCC(CC)(NC(=O)c1ccc(N2CC(F)(F)C2)c(OCC2CC2)n1)C(=O)NC [Example 86, 6-Cyclopropylmethoxy-5-(3,3-difluoro-azetidin-1-yl)-pyridine-2-carboxylic acid (1-ethyl-1-methylcarbamoyl-propyl)-amide] | 33.1 | > 10000
2 | CC(C)(NC(=O)c1ccc(N2CC(F)(F)C2)c(OCC(F)(F)F)n1)c1nccs1 [Example 288, 5-(3,3-Difluoro-azetidin-1-yl)-6-(2,2,2-trifluoro-ethoxy)-pyridine-2-carboxylic acid (1-methyl-4-thiazol-2-yl-ethyl)-amide] | 163 | > 10000
3 | CC(C)(NC(=O)c1ccc(Cl)c(-c2cccc(Cl)c2)n1)c1ncon1 [Example 88, 5-Chloro-6-(3-chloro-phenyl)-pyridine-2-carboxylic acid (1-methyl-1-[1,2,4]oxadiazol-3-yl-ethyl)-amide] | 356 | > 10000
4 | CS(=O)(=O)CC[C@H](NC(=O)c1ccc(N2CC(F)(F)C2)c(OCC2CC2)n1)C(N)=O [Example 345, 6-Cyclopropylmethoxy-5-(3,3-difluoro-azetidin-1-yl)-pyridine-2-carboxylic acid ((S)-1-carbamoyl-3-methanesulfonyl-propyl)-amide] | 295 | > 10000
5 | O=C(c1ccc(N2CCCC2)c(OCC2CC2)n1)N1CCSCC1 [Example 16, (6-Cyclopropylmethoxy-5-pyrrolidin-1-yl-pyridin-2-yl)-thiomorpholin-4-yl-methanone] | 16.6 | > 10000
6 | CC(C)CC(NC(=O)c1ccc(N2CC(F)(F)C2)c(OCC2CC2)n1)c1cccnc1 (stereo not drawn) [Example 325, 6-Cyclopropylmethoxy-5-(3,3-difluoro-azetidin-1-yl)-pyridine-2-carboxylic acid (3-methyl-1-pyridin-3-yl-butyl)-amide] | 17.5 | > 10000
7 | CCC(CC)(NC(=O)c1ccc(C2CC2)c(OCC2CC2)n1)C(=O)N1CCC1 [Example 274, 5-Cyclopropyl-6-cyclopropylmethoxy-pyridine-2-carboxylic acid [1-(azetidine-1-carbonyl)-1-ethyl-propyl]-amide] | 1.6 | 351
8 | CNC(=O)C(C)(C)NC(=O)c1ccc(N2CC(F)(F)C2)c(OCC2CC2)n1 [Example 87, 6-Cyclopropylmethoxy-5-(3,3-difluoro-azetidin-1-yl)-pyridine-2-carboxylic acid (1-methyl-1-methylcarbamoyl-ethyl)-amide] | 476 | > 10000
9 | Cc1nc([C@@](C)(NC(=O)c2ccc(C3CC3)c(OCC3CC3)n2)C2CC2)no1 [Example 323, 5-Cyclopropyl-6-cyclopropylmethoxy-pyridine-2-carboxylic acid [(+)-1-cyclopropyl-1-(5-methyl-[1,2,4]oxadiazol-3-yl)-ethyl]-amide] | 0.9 | 181
10 | CNC(=O)[C@@H](NC(=O)c1ccc(C2CC2)c(OCC2CC2)n1)C(C)(C)C [Example 168, (S)-5-Cyclopropyl-6-(cyclopropylmethoxy)-N-(3,3-dimethyl-1-(methylamino)-1-oxobutan-2-yl)picolinamide] | 0.6 | 313
11 | CCC(CC)(NC(=O)c1ccc(C2CC2)c(OCC2CCOCC2)n1)C(=O)O [Example 337, 2-{[5-Cyclopropyl-6-(tetrahydro-pyran-4-ylmethoxy)-pyridine-2-carbonyl]-amino}-2-ethyl-butyric acid] | 34.5 | 475
12 | CCC(CC)(NC(=O)c1ccc(C)c(-c2cccc(Cl)c2)n1)C(=O)NC [Example 70, 6-(3-Chloro-phenyl)-5-methyl-pyridine-2-carboxylic acid (1-ethyl-1-methylcarbamoyl-propyl)-amide] | 57.4 | > 10000
